Laboratory results: article PMC5218480 (PLoS ONE, 2017)

Tested on: MV-4-11 cells
Experiment: Gene expression microarray analysis (Affymetrix PrimeView) and GSEA
Format: cell-based, human
Set-up: RFU PODN (11730768_x_at) / Fold change /veh PODN (11730768_x_at) / RFU LINC00158 (11744669_a_at) / Fold change /veh LINC00158 (11744669_a_at) / RFU DUSP10 (11751237_a_at) / Fold change /veh DUSP10 (11751237_a_at) / RFU ID3 (11757404_x_at) / Fold change /veh ID3 (11757404_x_at) / RFU PLEKHG5 (11737974_s_at) / Fold change /veh PLEKHG5 (11737974_s_at) / RFU LRRC4B (11730491_at) / Fold change /veh LRRC4B (11730491_at) / RFU GIMAP4 (11747438_a_at) / Fold change /veh GIMAP4 (11747438_a_at) / RFU KRT8 (11758183_x_at) / Fold change /veh KRT8 (11758183_x_at) / RFU CNN1 (11734310_a_at) / Fold change /veh CNN1 (11734310_a_at) / RFU VPS37D (11726825_at) / Fold change /veh VPS37D (11726825_at) / RFU C10orf10 (11716522_x_at) / Fold change /veh C10orf10 (11716522_x_at) / RFU KIR2DL2 /// KIR2DL4 /// KIR2DL5A /// KIR2DL5B /// KIR2DS1 /// KIR2DS2 /// KIR2DS3 /// KIR2DS4 /// KIR3DL3 /// KIR3DL3 /// KIR3DS1 (11738374_at) / Fold change /veh KIR2DL2 /// KIR2DL4 /// KIR2DL5A /// KIR2DL5B /// KIR2DS1 /// KIR2DS2 /// KIR2DS3 /// KIR2DS4 /// KIR3DL3 /// KIR3DL3 /// KIR3DS1 (11738374_at) / RFU C1QL1 (11718748_at) / Fold change /veh C1QL1 (11718748_at) / RFU TMPRSS4 (11747572_a_at) / Fold change /veh TMPRSS4 (11747572_a_at) / RFU HAMP (11756126_x_at) / Fold change /veh HAMP (11756126_x_at) / RFU RNFT2 (11725882_a_at) / Fold change /veh RNFT2 (11725882_a_at) / RFU NR4A2 (11747474_a_at) / Fold change /veh NR4A2 (11747474_a_at) / RFU ABCC12 (11746883_a_at) / Fold change /veh ABCC12 (11746883_a_at) / RFU TMEM136 (11760407_x_at) / Fold change /veh TMEM136 (11760407_x_at) / RFU CLDN22 /// WWC2 (11732394_at) / Fold change /veh CLDN22 /// WWC2 (11732394_at) / RFU HLA-DPB1 (11760878_x_at) / Fold change /veh HLA-DPB1 (11760878_x_at) / RFU SPINT1 (11716480_a_at) / Fold change /veh SPINT1 (11716480_a_at) / RFU GAP43 (11754022_s_at) / Fold change /veh GAP43 (11754022_s_at) / RFU A4GNT (11735810_at) / Fold change /veh A4GNT (11735810_at) / RFU PRB3 (11715151_x_at) / Fold change /veh PRB3 (11715151_x_at) / RFU TUBB4B (11761932_at) / Fold change /veh TUBB4B (11761932_at) / RFU CAPN14 (11732068_a_at) / Fold change /veh CAPN14 (11732068_a_at) / RFU TMCC2 (11721928_a_at) / Fold change /veh TMCC2 (11721928_a_at) / RFU IRGQ (11745062_a_at) / Fold change /veh IRGQ (11745062_a_at) / RFU FAM174B (11720279_a_at) / Fold change /veh FAM174B (11720279_a_at) / RFU TMPRSS4 (11748680_a_at) / Fold change /veh TMPRSS4 (11748680_a_at) / RFU FAM212B (11763350_a_at) / Fold change /veh FAM212B (11763350_a_at) / RFU PLEKHG5 (11743358_a_at) / Fold change /veh PLEKHG5 (11743358_a_at) / RFU ZSCAN30 (11745921_a_at) / Fold change /veh ZSCAN30 (11745921_a_at) / RFU CMKLR1 (11741424_a_at) / Fold change /veh CMKLR1 (11741424_a_at) / RFU LOC101060620 /// MAPK8IP1 (11723275_at) / Fold change /veh LOC101060620 /// MAPK8IP1 (11723275_at) / RFU SPTSSB (11747773_x_at) / Fold change /veh SPTSSB (11747773_x_at) / RFU PRSS12 (11739890_at) / Fold change /veh PRSS12 (11739890_at) / RFU BIN1 (11741810_x_at) / Fold change /veh BIN1 (11741810_x_at) / RFU WNT11 (11732464_a_at) / Fold change /veh WNT11 (11732464_a_at) / RFU C10orf10 (11716521_a_at) / Fold change /veh C10orf10 (11716521_a_at) / RFU C5orf56 (11738089_at) / Fold change /veh C5orf56 (11738089_at) / RFU CYB561 (11721691_x_at) / Fold change /veh CYB561 (11721691_x_at) / RFU ANKRD19P (11752326_a_at) / Fold change /veh ANKRD19P (11752326_a_at) / RFU OR2T12 /// OR2T33 /// OR2T8 (11738714_s_at) / Fold change /veh OR2T12 /// OR2T33 /// OR2T8 (11738714_s_at) / RFU VCAN (11748164_a_at) / Fold change /veh VCAN (11748164_a_at) / RFU JSRP1 (11732532_at) / Fold change /veh JSRP1 (11732532_at) / RFU KRTAP10-11 (11738290_x_at) / Fold change /veh KRTAP10-11 (11738290_x_at) / RFU MYO3A (11730013_a_at) / Fold change /veh MYO3A (11730013_a_at) / RFU EBF3 (11725865_a_at) / Fold change /veh EBF3 (11725865_a_at) / RFU CAMK2N1 (11719241_x_at) / Fold change /veh CAMK2N1 (11719241_x_at) / RFU C5orf56 (11738088_a_at) / Fold change /veh C5orf56 (11738088_a_at) / RFU OLFML3 (11715873_a_at) / Fold change /veh OLFML3 (11715873_a_at) / RFU LOC100653217 /// NTM (11731650_a_at) / Fold change /veh LOC100653217 /// NTM (11731650_a_at) / RFU MAPK11 (11762145_a_at) / Fold change /veh MAPK11 (11762145_a_at) / RFU FIZ1 (11724087_x_at) / Fold change /veh FIZ1 (11724087_x_at) / RFU OASL (11726364_x_at) / Fold change /veh OASL (11726364_x_at) / RFU SOX15 (11748057_x_at) / Fold change /veh SOX15 (11748057_x_at) / RFU CD79A (11719716_a_at) / Fold change /veh CD79A (11719716_a_at) / RFU HIST1H1D (11736915_at) / Fold change /veh HIST1H1D (11736915_at) / RFU CASKIN2 (11723855_a_at) / Fold change /veh CASKIN2 (11723855_a_at) / RFU LOC730098 (11760151_x_at) / Fold change /veh LOC730098 (11760151_x_at) / RFU OR4N2 (11742367_at) / Fold change /veh OR4N2 (11742367_at) / RFU PRRT2 (11749266_a_at) / Fold change /veh PRRT2 (11749266_a_at) / RFU SNX32 (11753110_a_at) / Fold change /veh SNX32 (11753110_a_at) / RFU CDHR5 (11726645_a_at) / Fold change /veh CDHR5 (11726645_a_at) / RFU RCAN1 (11760418_a_at) / Fold change /veh RCAN1 (11760418_a_at) / RFU FAM167A (11723789_a_at) / Fold change /veh FAM167A (11723789_a_at) / RFU FAM26E (11764081_at) / Fold change /veh FAM26E (11764081_at) / RFU ISYNA1 (11749810_s_at) / Fold change /veh ISYNA1 (11749810_s_at) / RFU ACY1 (11761880_at) / Fold change /veh ACY1 (11761880_at) / RFU 11764098_at / Fold change /veh 11764098_at / RFU SAMD14 (11745864_x_at) / Fold change /veh SAMD14 (11745864_x_at) / RFU NPB (11741838_a_at) / Fold change /veh NPB (11741838_a_at) / RFU TMPRSS6 (11731388_a_at) / Fold change /veh TMPRSS6 (11731388_a_at) / RFU KRTAP10-2 (11738614_at) / Fold change /veh KRTAP10-2 (11738614_at) / RFU ARHGAP8 /// PRR5-ARHGAP8 (11727945_x_at) / Fold change /veh ARHGAP8 /// PRR5-ARHGAP8 (11727945_x_at) / RFU KRTAP5-7 /// NADSYN1 (11734609_at) / Fold change /veh KRTAP5-7 /// NADSYN1 (11734609_at) / RFU RASL12 (11751679_a_at) / Fold change /veh RASL12 (11751679_a_at) / RFU CDKN2B (11736163_a_at) / Fold change /veh CDKN2B (11736163_a_at) / RFU PRF1 (11729649_at) / Fold change /veh PRF1 (11729649_at) / RFU, ZNF638 /// ZNF638-IT1 / Fold change vs veh, ZNF638 /// ZNF638-IT1 / RFU, PANK3 / Fold change vs veh, PANK3 / RFU, SH3YL1 / Fold change vs veh, SH3YL1 / RFU, ZEB2 / Fold change vs veh, ZEB2 / RFU, NRIP1 / Fold change vs veh, NRIP1 / RFU, PTTG1IP / Fold change vs veh, PTTG1IP / RFU, CAPN2 / Fold change vs veh, CAPN2 / RFU, MED14 / Fold change vs veh, MED14 / RFU, SNORA58 / Fold change vs veh, SNORA58 / RFU, C1orf63 / Fold change vs veh, C1orf63 / RFU, LRRFIP1 / Fold change vs veh, LRRFIP1 / RFU, NDUFAF7 / Fold change vs veh, NDUFAF7 / RFU, SLC12A2 / Fold change vs veh, SLC12A2 / RFU, IBTK / Fold change vs veh, IBTK / RFU, ESF1 / Fold change vs veh, ESF1 / Fold change vs veh, TMEM50B / RFU, TAOK1 / Fold change vs veh, TAOK1 / RFU, ACBD3 / Fold change vs veh, ACBD3 / RFU, TMA16 / Fold change vs veh, TMA16 / RFU, RWDD3 / Fold change vs veh, RWDD3 / RFU, BCAT1 / Fold change vs veh, BCAT1 / RFU, EDEM3 / Fold change vs veh, EDEM3 / RFU, TMEM33 / Fold change vs veh, TMEM33 / RFU, WDR75 / Fold change vs veh, WDR75 / RFU, AHCTF1 / Fold change vs veh, AHCTF1 / RFU, TFRC / Fold change vs veh, TFRC / RFU, ZDHHC17 / Fold change vs veh, ZDHHC17 / RFU, NOM1 / Fold change vs veh, NOM1 / RFU, ARL8B / Fold change vs veh, ARL8B / RFU, ZBTB11 / Fold change vs veh, ZBTB11 / RFU, TAMM41 / Fold change vs veh, TAMM41 / RFU, KIAA1704 /// LOC100996395 / Fold change vs veh, KIAA1704 /// LOC100996395 / RFU, ING1 / Fold change vs veh, ING1 / RFU, TRMT61B / Fold change vs veh, TRMT61B / RFU, FUBP3 / Fold change vs veh, FUBP3 / RFU, TP53 / Fold change vs veh, TP53 / RFU, TNKS2 / Fold change vs veh, TNKS2 / RFU, ZFP14 / Fold change vs veh, ZFP14 / RFU, ACTR2 / Fold change vs veh, ACTR2 / RFU, PPP3R1 / Fold change vs veh, PPP3R1 / RFU, PIK3R1 / Fold change vs veh, PIK3R1 / RFU, HNRNPA1 / Fold change vs veh, HNRNPA1 / RFU, RNF170 / Fold change vs veh, RNF170 / RFU, ZNF28 / Fold change vs veh, ZNF28 / RFU, RNGTT / Fold change vs veh, RNGTT / RFU, OGT / Fold change vs veh, OGT / RFU, BRD1 / Fold change vs veh, BRD1 / RFU, MARS / Fold change vs veh, MARS / RFU, ZNF655 / Fold change vs veh, ZNF655 / RFU, FAHD1 / Fold change vs veh, FAHD1 / RFU, BDP1 / Fold change vs veh, BDP1 / RFU, LRRCC1 / Fold change vs veh, LRRCC1 / RFU, ARID1A / Fold change vs veh, ARID1A / RFU, ZNF146 / Fold change vs veh, ZNF146 / RFU, ZNF330 / Fold change vs veh, ZNF330 / RFU, GPN3 / Fold change vs veh, GPN3 / RFU, C9orf123 / Fold change vs veh, C9orf123 / RFU, N4BP2L2 / Fold change vs veh, N4BP2L2 / RFU, ARFIP1 / Fold change vs veh, ARFIP1 / RFU, FAM179B / Fold change vs veh, FAM179B / RFU, BCL10 / Fold change vs veh, BCL10 / RFU, UHRF1BP1L / Fold change vs veh, UHRF1BP1L / RFU, BET1 / Fold change vs veh, BET1 / RFU, CNOT2 / Fold change vs veh, CNOT2 / RFU, ZNF268 / Fold change vs veh, ZNF268 / Fold change vs veh, ZNF507 / RFU, DGCR2 / Fold change vs veh, DGCR2 / RFU, WDSUB1 / Fold change vs veh, WDSUB1 / Fold change vs veh, HSP90B1 /// MIR3652 / RFU, ADSS / Fold change vs veh, ADSS / RFU, GK / Fold change vs veh, GK / RFU, ZNF148 / Fold change vs veh, ZNF148 / RFU, TAF9 / Fold change vs veh, TAF9 / RFU, SLC1A5 / Fold change vs veh, SLC1A5 / RFU, SLMO2 / Fold change vs veh, SLMO2 / RFU, ABCC4 / Fold change vs veh, ABCC4 / RFU, LOC101060439 /// RAP1B / Fold change vs veh, LOC101060439 /// RAP1B / RFU, RFX7 / Fold change vs veh, RFX7 / RFU, GTPBP10 / Fold change vs veh, GTPBP10 / RFU, CNEP1R1 / Fold change vs veh, CNEP1R1 / RFU, BIVM-ERCC5 /// ERCC5 / Fold change vs veh, BIVM-ERCC5 /// ERCC5 / RFU, ILF3 / Fold change vs veh, ILF3 / RFU 11762660_at / Fold change /veh 11762660_at / RFU VCAN (11757783_s_at) / Fold change /veh VCAN (11757783_s_at) / RFU DDX43 (11728927_at) / Fold change /veh DDX43 (11728927_at) / RFU KRT8 (11758188_x_at) / Fold change /veh KRT8 (11758188_x_at) / RFU NKD1 (11759106_at) / Fold change /veh NKD1 (11759106_at) / RFU SRD5A1 (11742802_a_at) / Fold change /veh SRD5A1 (11742802_a_at) / RFU TPSAB1 /// TPSB2 (11721975_s_at) / Fold change /veh TPSAB1 /// TPSB2 (11721975_s_at) / RFU GSTM3 (11746129_a_at) / Fold change /veh GSTM3 (11746129_a_at) / RFU IL23R (11737362_x_at) / Fold change /veh IL23R (11737362_x_at) / RFU TMEM51 (11727254_a_at) / Fold change /veh TMEM51 (11727254_a_at) / RFU PIWIL2 (11732686_x_at) / Fold change /veh PIWIL2 (11732686_x_at) / RFU ORM1 (11744905_x_at) / Fold change /veh ORM1 (11744905_x_at) / RFU CCDC152 (11743942_at) / Fold change /veh CCDC152 (11743942_at) / RFU ECM1 (11717891_a_at) / Fold change /veh ECM1 (11717891_a_at) / RFU IL23R (11748794_a_at) / Fold change /veh IL23R (11748794_a_at) / RFU TNFAIP8L3 (11732012_x_at) / Fold change /veh TNFAIP8L3 (11732012_x_at) / RFU MBOAT4 (11741988_at) / Fold change /veh MBOAT4 (11741988_at) / RFU 11764193_at / Fold change /veh 11764193_at / RFU TMEM53 (11763286_at) / Fold change /veh TMEM53 (11763286_at) / RFU MAGEB2 (11727129_at) / Fold change /veh MAGEB2 (11727129_at) / RFU TMEM200A (11744735_a_at) / Fold change /veh TMEM200A (11744735_a_at) / RFU CCDC152 (11751479_a_at) / Fold change /veh CCDC152 (11751479_a_at) / RFU FAM211A (11726209_a_at) / Fold change /veh FAM211A (11726209_a_at) / RFU RGS16 (11746705_a_at) / Fold change /veh RGS16 (11746705_a_at) / RFU VCAN (11755009_s_at) / Fold change /veh VCAN (11755009_s_at) / RFU RHOB (11743442_s_at) / Fold change /veh RHOB (11743442_s_at) / RFU RGS16 (11720943_a_at) / Fold change /veh RGS16 (11720943_a_at) / RFU RGS16 (11720944_at) / Fold change /veh RGS16 (11720944_at) / RFU, VPS4B / Fold change vs veh, VPS4B / RFU, CREB1 / Fold change vs veh, CREB1 / RFU, DNAJC13 / Fold change vs veh, DNAJC13 / RFU, GNAQ / Fold change vs veh, GNAQ / RFU, CDK5R1 / Fold change vs veh, CDK5R1 / RFU, ZRANB3 / Fold change vs veh, ZRANB3 / RFU, CUL4A / Fold change vs veh, CUL4A / RFU, CCNY / Fold change vs veh, CCNY / RFU, UFL1 / Fold change vs veh, UFL1 / RFU, COG3 / Fold change vs veh, COG3 / RFU, DIAPH2 / Fold change vs veh, DIAPH2 / RFU, SKA2 / Fold change vs veh, SKA2 / RFU, AFF3 / Fold change vs veh, AFF3 / RFU, LMF1 / Fold change vs veh, LMF1 / RFU, IPO11 / Fold change vs veh, IPO11 / RFU, DFFB / Fold change vs veh, DFFB / RFU, FOXP1 / Fold change vs veh, FOXP1 / RFU, CARD8 / Fold change vs veh, CARD8 / RFU, STRN3 / Fold change vs veh, STRN3 / RFU, ADK / Fold change vs veh, ADK / RFU, RASSF2 / Fold change vs veh, RASSF2 / RFU, WIPF1 / Fold change vs veh, WIPF1 / RFU, LARP1B / Fold change vs veh, LARP1B / RFU, RASA1 / Fold change vs veh, RASA1 / RFU, RB1 / Fold change vs veh, RB1 / RFU, PPFIA1 / Fold change vs veh, PPFIA1 / RFU, MAT2A / Fold change vs veh, MAT2A / RFU, CCT5 / Fold change vs veh, CCT5 / RFU, WDR92 / Fold change vs veh, WDR92 / RFU, CUX1 / Fold change vs veh, CUX1 / RFU, TTC7A / Fold change vs veh, TTC7A / RFU, TMEM135 / Fold change vs veh, TMEM135 / RFU, DEPTOR / Fold change vs veh, DEPTOR / RFU, CPM / Fold change vs veh, CPM / RFU, DNAJB6 / Fold change vs veh, DNAJB6 / RFU, CACNA2D3 / Fold change vs veh, CACNA2D3 / RFU, DTX4 / Fold change vs veh, DTX4 / RFU, TFCP2 / Fold change vs veh, TFCP2 / RFU, GMCL1 /// GMCL1P1 / Fold change vs veh, GMCL1 /// GMCL1P1 / RFU, AEBP2 / Fold change vs veh, AEBP2 / RFU, SNHG1 /// SNORD22 /// SNORD25 /// SNORD26 /// SNORD27 /// SNORD28 /// SNORD29 /// SNORD31 / Fold change vs veh, SNHG1 /// SNORD22 /// SNORD25 /// SNORD26 /// SNORD27 /// SNORD28 /// SNORD29 /// SNORD31 / Fold change (Aza/veh), C12orf56 (ProbeSet 11735607_a_at) / Fold change (ACY-1035/veh), C12orf56 (ProbeSet 11735607_a_at) / Fold change (Aza/veh), FGFR1OP (ProbeSet 11751329_s_at) / Fold change (ACY-1035/veh), FGFR1OP (ProbeSet 11751329_s_at) / Fold change (Aza/veh), VPS36 (ProbeSet 11739960_a_at) / Fold change (ACY-1035/veh), VPS36 (ProbeSet 11739960_a_at) / RFU SYPL1 (11715823_x_at) / Fold change /veh SYPL1 (11715823_x_at) / RFU IGFBP7 (11715501_s_at) / Fold change /veh IGFBP7 (11715501_s_at) / RFU REEP3 (11722064_at) / Fold change /veh REEP3 (11722064_at) / RFU IGLL1 (11728026_x_at) / Fold change /veh IGLL1 (11728026_x_at): dose or concentration left out as unconfirmed
Settings: MV-4-11 cells, 48 hours

Structure (SMILES): Nc1ccc(-c2cccs2)cc1NC(=O)c1ccc2c(c1)cc(C1CC1)n2CCN1CCOCC1 [ACY-1035]
- RFU RGS16 (11746705_a_at): 52.79 RFU
